# According to patent US20050196492A1, “Food preservative method and system using vanillin and constituent having isothiocynate compound” (priority 2004, published 2005):
# What was measured:
# [1] = test system: Rhizopusus stolonifer and Aspergillus niger; assay: Combination of vanillin and VOM (AIT) in MRE package, growth grid, both fungi; type: cell-based, Rhizopus stolonifer and Aspergillus niger; conditions: Vanillin 0 ppm
# Protocol: (§1) Four bread spoilage organisms were used in determining the inhibition properties of vanillin and VOM: (1) Penicillium notatum, (2) Rhizopus stolonifer, (3) Aspergillus niger and (4) Saccharomycopsis fibuligera. For purposes of this analysis, Wasaouro® was used as the source of VOM. The antimicrobial tests were conducted in MRE air-impermeable laminated packages without bread. Petri dishes containing the appropriate growth medium were inoculated with a selected spoilage organism and then sealed with various concentrations of vanillin and/or Wasaouro®. The vanillin was incorporated directly into the growth medium while the Wasaouro® was kept separate from the organism within the MRE package. […] Wasaouro® was effective at low headspace concentrations (e.g. 17 μg/L (AIT)) with the exception of Rhizopus stolonifer which is resistant to AIT even at much higher concentrations.
# [2] = test system: Penicillium notatum; assay: Antimicrobial properties of VOM (Wasaouro vapor) alone in MRE package, growth/no growth; type: cell-based; conditions: AIT by gas chromatography at time zero, 25° C., seven days
# Protocol: (§2) Similarly, the antimicrobial properties of VOM (without vanillin) were evaluated against the four organisms shown in Table I. In order to evaluate the antimicrobial properties of VOM against each of these foregoing organisms, the modeling system employed several MRE packages. Each MRE package contained two Petri dishes. One Petri dish, 100 mm×15 mm, contained a medium and a selected organism. […] The cellulose filter pad for each 60 mm×15 mm Petri dish received a measured quantity of Wasaouro®. A stock solution of Wasaouro® powder was made and volumes of 100, 200, 400, 600, 800 and 1000 μl were added respectively to the filter pads of the 60 mm×15 mm Petri dishes for each group. […] The amount of the volatile active component of Wasaouro®, allyl isothiocyanate, was determined using gas chromatography. Each Petri dish in the first group was inoculated with Penicillium notatum, inoculum 10^5 spores/ml. Each Petri dish in the first group was then uncovered and placed in its own MRE impermeable laminated package. Similarly, each Petri dish in the second group of Petri dishes was inoculated with Rhizopus stolonifer, inoculum 10^5 spores/ml. Each Petri dish in the second group was then uncovered and then placed in its own MRE impermeable laminated package. In a similar manner, each Petri dish in the third group of Petri dishes was inoculated with Aspergillus niger, inoculum 10^5 spores/ml. Each Petri dish in the third group was then uncovered and then placed in its own MRE impermeable laminated package. Similarly, each Petri dish in the fourth group of Petri dishes was inoculated with Saccharomycopsis fibuligera, inoculum 10^5 spores/ml. Each Petri dish in the fourth group was then uncovered and then placed in its own MRE impermeable laminated package. All MRE packages (for all groups of Petri dishes) were then incubated at 25° C. for seven days. The determination of effectiveness of VOM as an antimicrobial agent was based on a growth or no growth basis. Petri dishes with no growth were left out for seven days after removal from the MRE package to ensure that there was no additional growth. For each experiment, a set of control MRE packages were made with the various concentrations of Wasaouro®. These control packages were used to extrapolate the relative amounts of allyl isothiocyanate in the experimental MRE packages at time zero.
# [3] = test system: Rhizopus stolonifer; assay: as above; type: cell-based
# Protocol: as §2
# [4] = test system: Aspergillus niger; assay: as above; type: cell-based; conditions: AIT by gas chromatography at time zero, 25° C., seven days
# Protocol: as §2
# [5] = test system: Saccharomycopsis fibuligera; assay: as above; type: cell-based; conditions: AIT by gas chromatography at time zero, 25° C., seven days
# Protocol: as §2
# [6] = test system: Rhizopusus stolonifer; assay: Combination of vanillin and VOM (AIT) in MRE package, growth grid; type: cell-based, Rhizopus stolonifer; conditions: Vanillin 0 ppm
# Protocol: as §1
# [7] = test system: Aspergillus niger; assay: as above; type: cell-based; conditions: for growth of Aspergillus niger: Vanillin 0 ppm
# Protocol: as §1
# Next, both antimicrobial agents were tested against two of the more resistant organisms, Rhizopus stolonifer and Aspergillus niger.
compound,measurement,setting,value
"C=CCN=C=S [AIT, allyl isothiocyanate]",growth of Rhizopusus stolonifer and Aspergillus niger,[1]; AIT 55 ug/L,Growth
same,growth of Rhizopusus stolonifer and Aspergillus niger,[1]; AIT 145 ug/L,Growth
same,growth of Rhizopusus stolonifer and Aspergillus niger,[1]; AIT 150 ug/L,Growth
same,growth of Rhizopusus stolonifer and Aspergillus niger,[1]; AIT 420 ug/L,Growth
same,growth of Rhizopusus stolonifer and Aspergillus niger,[1]; AIT 465 ug/L,Growth
same,growth of Rhizopusus stolonifer and Aspergillus niger,[1]; AIT 905 ug/L,Growth
same,Effective Amount Of Allyl Isothiocyanate,[2],˜17 ppm
same,Effective Amount Of Allyl Isothiocyanate,"[3]; Wasaouro vapor in MRE package, AIT by gas chromatography at time zero, 25° C., seven days",>470 ppm
same,susceptibility of Rhizopus stolonifer to AIT,[3]; even at much higher concentrations than 17 μg/L,resistant
same,Effective Amount Of Allyl Isothiocyanate,[4],˜17 ppm
same,Effective Amount Of Allyl Isothiocyanate,[5],˜8 ppm
same,growth of Rhizopusus stolonifer,[6]; AIT 55 ug/L,Growth
same,growth of Rhizopusus stolonifer,[6]; AIT 145 ug/L,Growth
same,growth of Rhizopusus stolonifer,[6]; AIT 150 ug/L,Growth
same,growth of Rhizopusus stolonifer,[6]; AIT 420 ug/L,Growth
same,growth of Rhizopusus stolonifer,[6]; AIT 465 ug/L,Growth
same,growth of Rhizopusus stolonifer,[6]; AIT 905 ug/L,Growth
same,sensitivity of Aspergillus niger to AIT,[7],very sensitive
same,growth of Aspergillus niger,[7]; AIT 55 ug/L,Growth
same,growth of Aspergillus niger,[7]; AIT 145 ug/L,N/G
same,growth of Aspergillus niger,[7]; AIT 150 ug/L,Growth
same,growth of Aspergillus niger,[7]; AIT 420 ug/L,N/G
same,growth of Aspergillus niger,[7]; AIT 465 ug/L,N/G
same,growth of Aspergillus niger,[7]; AIT 905 ug/L,N/G
